From patent US5071855A, “Pharmacologically active piperidinylimidazopyridine compounds” (Dompe Farmaceutici SpA, priority 1989, dated 1991)
Where a name gives a salt, the structure may show the parent alone.

Legend:
[1] = system: mortality induced by histamine; test: Effect on the mortality induced by histamine; format: in vivo, male albino guinea pigs (Dunkin-Hartley); settings: Cavia porcellus, po; guinea pig, p.o., 60 minutes before 1.25 mg/kg i.v. histamine dihydrochloride; 50% inhibition of mortality; read-out: Mortality induced by hystamine ED50 p.o.
Protocol: EFFECT ON THE MORTALITY INDUCED BY HISTAMINE
The method described by Romer D. et al. (Med. Welt. 17,791,1966) was followed and the tests were carried out on male albino guinea pigs (Dunkin-Hartley), weighing 350 to 450 g which were kept in cages with a grid floor, on an empty stomach for 24 hours with water ad libitum. The compounds under examination have been orally administered to the animals, dissolved in 0.5% carboxymethylcellulose, 60 minutes before intravenous administration of 1.25 mg/kg of histamine dihydrochloride in saline solution. In the control animals, treated with carboxymethylcellulose, the intravenous administration of histamine dihydrochloride induced a 100% mortality.
It has been evaluated ED50, which corresponds to the amount of the compound able inhibit to 50% the mortality induced by histamine: estimation of ED50 has been made applying the `probit` method (Finney D. J. "Statistical method in biological assay", pg 512,1957).

[2] = system: mortality induced by compound 48/80; test: Mortality inhibition by compound 48/80; format: in vivo, Sprague Dawley Nos male rats; settings: ip; rat, i.p., 30 minutes before 2 mg/kg i.v. compound 48/80; observed 4 hours
Protocol: MORTALITY INHIBITION BY COMPOUND 48/80
For evaluating the protection of the mortality induced by compound 48/80 administration the method described by C. J. E. Niemegeers et al. (Arch. Int. Pharmacodyn, 234,164,1978) was followed.
Sprague Dawley Nos male rats (Nossan, Correzzana, Milano) weighing 140 to 150 g, divided into groups of 10 animals each, on an empty stomach for 24 hours with water "ad libitum", were kept in cages with a grid floor, and treated intravenously with 2 mg/kg of compound 48/80 (1 ml/rat).
The animals were kept under observation for 4 hours taking note of their mortality. The results were expressed as the number of animals dead with respect to the number of treated animals. Compounds under examination or the carrier were administered 30 minutes before administration of compound 48/80 by intraperitoneal route, dissolved in H2 O (5 ml/kg) or suspended in 0.5% carboxymethylcellulose. The experimental data were submitted to the variance analysis and to subsequent multiple comparisons according to Dunnet (D. J. Finney, in "Statistical Methods in Biological assay", Ed. L. Griffin and Co. Ltd., pag. 152,1957, Edition Ames Iowa, 1971).

[3] = Evaluation of the lethal dose50 (LD50), acute toxicity; settings: in vivo, ip; mouse, 14 days; probit method
Protocol: EVALUATION OF THE LETHAL DOSE50 (LD50)
Swiss Nos (Nossau, Correzzana, Milano) mice, weighing 18 to 20 g each, on an empty stomach for 18 hours with water "ad libitum" and kept in cages with grid floor, were used. The animals, divided into groups of 10 animals each, (5M+5F) were treated intraperitoneally (10 ml/kg) with the compounds under examination dissolved in water or suspended in 0.5% carboxymethyl-cellulose. The animals were kept in the cages and the mortality occurred within the following 6 hours was noted down. At the expiring of the 6 hours the animals were allowed to eat up to the end of the experimentation which lasted 14 days. During this period all the toxic symptoms and the mortality occuring were noted.
The animals which died during the test period and those which were sacrificed at the end of the same, underwent autopsy for a macroscopic examination of their main organs. The experimental data were statistically compared with the X^2 method and LD50 was extrapolated by the `probit` method.

Compound | ED50 [1] | ED50 [2] | LD50 at 336 h [3]
CCOCCn1c(C2CCN(C)CC2)nc2cccnc21 [Example 2, 3-(2-Ethoxyethyl)-2-(1-methylpiperidin-4-yl)-3H-imidazo [4,5-b] pyridine 1.5 fumarate] | 0.042 mg/kg | 0.34 mg/kg | 500 mg/kg
CCOCCn1c(C2CCCN(C)C2)nc2cccnc21.O=C(O)/C=C/C(=O)O.O=C(O)/C=C/C(=O)O (stereo not drawn) [Example 5, 3-(2-Ethoxyethyl)-2-(1-methylpiperidin-3-yl)-3H-imidazo [4,5-b] pyridine difumarate] | 0.05 mg/kg | 0.59 mg/kg | < 100 mg/kg
CN1CCCC(c2nc3cccnc3n2Cc2ccccc2)C1 (stereo not drawn) [Example 8, 3-Benzyl-2-(1-methylpiperidin-3-yl)-3H-imidazo [4,5-b] pyridine] | 0.078 mg/kg | – | > 100 mg/kg
CC(C)(C)c1ccc(C(O)CCCN2CCC(C(O)(c3ccccc3)c3ccccc3)CC2)cc1 (stereo not drawn) [Terfenadine, reference compound] | – | 1.99 mg/kg | –
